For series [1] the following is noted: radiocontrast nephropathy, impaired renal excretory, endocrine and tubular function, cited from earlier work.
For series [2] the following is noted: patients, aminophylline toxicity; cited from earlier work.
Series [3] can be described thus: treatment of oliguric prerenal acute renal failure, need for dialysis. Format: in vivo, human. Particulars: patients with acute renal failure progressed to oliguria (less than 300 ml urine output per day). The text has this: Adenosine receptor antagonists, especially aminophyllline, are used to treat or prevent acute renal failure. Adenosine antagonists are suited for prerenal acute renal failure only.

The conditions of series [4]: human trials, radio-contrast renal injury, IV, administered before the toxic insult; cited from earlier work.
For series [5] the following is noted: rat, glycerol-induced ARF, IV, administered before the toxic insult; cited from earlier work.
For series [6] the following is noted: cyclosporin-A-induced renal failure with renal vasoconstriction; cited from earlier work.

The structures appear in SMILES notation. Read-outs that look alike come from different tables or passages of the source.

On to `Cn1c(=O)c2[nH]cnc2n(C)c1=O` [Theophyllin E], for which, in series [1], the “protective role in preventing RCN” value was “effective in preventing RCN impaired renal excretory, endocrine and tubular function”.
With `Cn1c(=O)c2[nH]cnc2n(C)c1=O` [aminophylline], the “serum theophylline level at which nausea and vomiting usually occur” value in series [2] was “around 20 micrograms/ml”. For the same compound, the “patients in whom the need for dialysis is obviated” value in series [3] was “over 50%”. In addition, the “prevention of ARF” value in series [4] and in series [5] was “dramatic in preventing ARF” in each case. In addition, in series [1] (listed as Aminophylline), the “protective role in preventing RCN” value is reported as “does not appear to add a protective role in preventing RCN”.
On to `Cn1c(=O)c2[nH]cnc2n(C)c1=O` [theophylline], for which the “restoration of renal function” value in series [6] was “restored renal function significantly”.

Source of the values: US6998404B2, “Treatment or prevention of acute renal failure” (priority 2001, dated 2006).
